In patent US20100267561A1, “HERBICIDAL PYRIDAZINONE DERIVATIVES” (priority 2007, published 2010):

Assays:
Type in all cases: in vivo
[1] = test system: pigweed (Amaranthus retroflexus); experiment: Test B pre-/postemergence plant response
Method in brief: (§1)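 Seeds were sown and sprayed preemergence, while plants at 2 to 18 cm (1- to 4-leaf stage) got postemergence sprays. Compounds were formulated in a non-phytotoxic solvent mixture with surfactant. After 13 to 15 days in a greenhouse, injury was rated visually against untreated controls, 0 (no effect) to 100 (complete control).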

[2] = test system: morningglory (Ipomoea coccinea); experiment: Test B pre-/postemergence plant response
Method in brief: as §1

[3] = test system: soybean (Glycine max); experiment: Test B pre-/postemergence plant response
Method in brief: as §1

[4] = test system: large crabgrass (Digitaria sanguinalis); experiment: Test B pre-/postemergence plant response
Method in brief: as §1

[5] = test system: Italian ryegrass (Lolium multiflorum); experiment: Test B pre-/postemergence plant response
Method in brief: as §1

[6] = test system: johnsongrass (Sorghum halepense); experiment: Test B pre-/postemergence plant response
Method in brief: as §1

[7] = test system: bermudagrass (Cynodon dactylon); experiment: Test B pre-/postemergence plant response; settings: for Bermudagrass plant response rating: 8 g ai/ha
Method in brief: as §1

[8] = test system: giant foxtail (Setaria faberii); experiment: Test B pre-/postemergence plant response
Method in brief: as §1

[9] = test system: lambsquarters (Chenopodium album); experiment: Test B pre-/postemergence plant response
Method in brief: as §1

[10] = test system: kochia (Kochia scoparia); experiment: Test B pre-/postemergence plant response
Method in brief: as §1

[11] = test system: velvetleaf (Abutilon theophrasti); experiment: Test B pre-/postemergence plant response
Method in brief: as §1

[12] = test system: goosegrass (Eleusine indica); experiment: Test B pre-/postemergence plant response
Method in brief: as §1

[13] = test system: catchweed bedstraw (Galium aparine); experiment: Test B pre-/postemergence plant response; settings: Preemergence; for Galium plant response rating: scale 0 to 100
Method in brief: as §1

[14] = test system: rice (Oryza sativa); experiment: Test B flooded paddy test plant response
Method in brief: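 Rice, umbrella sedge, ducksalad and barnyardgrass at 2-leaf stage; pots flooded to 3 cm, compounds applied into paddy water, depth held throughout. Greenhouse 13 to 15 days, then visual rating vs untreated controls on 0–100 scale (0 no effect, 100 complete control); dash means no test result.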

[15] = 8 g ai/ha, postemergence, 0-100 scale
[16] = Postemergence, 16 g ai/ha, scale 0 to 100
[17] = Postemergence, 31 g ai/ha, scale 0 to 100
[18] = Postemergence, 62 g ai/ha, scale 0 to 100, 0 no effect, 100 complete control
[19] = Preemergence, 31 g ai/ha, scale 0 to 100 (0 no effect, 100 complete control)
[20] = Preemergence, 62 g ai/ha, 0 to 100 scale, 0 no effect, 100 complete control
[21] = Preemergence, 8 g ai/ha, scale 0 to 100
[22] = Preemergence, 16 g ai/ha, scale 0 to 100

CCCC(=O)Oc1cnn(C)c(=O)c1-n1nc(-c2ccc(Cl)cc2)cc1C [Compound 56]
Pigweed plant response rating [1, 15]: 0
Plant response rating, Pigweed [1, 16]: 0
Plant response rating, Pigweed [1, 17]: 0
Plant response rating, Pigweed [1, 18]: 0
Plant response rating, Pigweed [1, 19]: 0
Plant response rating, Pigweed [1, 20]: 0
Pigweed plant response rating [1, 21]: 0
Pigweed plant response rating [1, 22]: 0
Morningglory plant response rating [2, 15]: 0
Plant response rating, Morningglory [2, 16]: 0
Plant response rating, Morningglory [2, 17]: 0
Plant response rating, Morningglory [2, 18]: 0
Plant response rating, Morningglory [2, 19]: 0
Plant response rating, Morningglory [2, 20]: 0
Morningglory plant response rating [2, 21]: 0
Morningglory plant response rating [2, 22]: 0
Soybean plant response rating [3, 15]: 0
Plant response rating, Soybean [3, 16]: 0
Plant response rating, Soybean [3, 17]: 0
Plant response rating, Soybean [3, 18]: 0
Plant response rating, Soybean [3, 20]: 0
Soybean plant response rating [3, 21]: 0
Soybean plant response rating [3, 22]: 0
Crabgrass, Large plant response rating [4, 15]: 65
Plant response rating, Crabgrass, Large [4, 16]: 85
Plant response rating, Crabgrass, Large [4, 17]: 95
Plant response rating, Crabgrass, Large [4, 18]: 100
Plant response rating, Crabgrass, Large [4, 19]: 100
Plant response rating, Crabgrass, Large [4, 20]: 100
Crabgrass, Large plant response rating [4, 21]: 0
Crabgrass, Large plant response rating [4, 22]: 60
Ryegrass, Italian plant response rating [5, 15]: 0
Plant response rating, Ryegrass, Italian [5, 16]: 40
Plant response rating, Ryegrass, Italian [5, 17]: 60
Plant response rating, Ryegrass, Italian [5, 18]: 65
Plant response rating, Ryegrass, Italian [5, 19]: 98
Plant response rating, Ryegrass, Italian [5, 20]: 100
Ryegrass, Italian plant response rating [5, 21]: 60
Ryegrass, Italian plant response rating [5, 22]: 98
Johnsongrass plant response rating [6, 15]: 0
Plant response rating, Johnsongrass [6, 16]: 65
Plant response rating, Johnsongrass [6, 17]: 85
Plant response rating, Johnsongrass [6, 18]: 100
Plant response rating, Johnsongrass [6, 19]: 70
Plant response rating, Johnsongrass [6, 20]: 100
Johnsongrass plant response rating [6, 21]: 60
Johnsongrass plant response rating [6, 22]: 65
Bermudagrass plant response rating ([7]; postemergence, 0-100 scale): 65
Plant response rating, Bermudagrass [7, 16]: 70
Plant response rating, Bermudagrass [7, 17]: 95
Plant response rating, Bermudagrass [7, 18]: 100
Bermudagrass plant response rating ([7]; Preemergence, scale 0 to 100 (0 no effect, 100 complete control)): 85
Plant response rating, Bermudagrass ([7]; Preemergence, 16 g ai/ha, scale 0 to 100 (0 no effect, 100 complete control)): 100
Plant response rating, Bermudagrass [7, 19]: 100
Plant response rating, Bermudagrass [7, 20]: 100
Foxtail, Giant plant response rating [8, 15]: 75
Plant response rating, Foxtail, Giant [8, 16]: 98
Plant response rating, Foxtail, Giant [8, 17]: 98
Plant response rating, Foxtail, Giant [8, 18]: 100
Plant response rating, Foxtail, Giant [8, 19]: 100
Plant response rating, Foxtail, Giant [8, 20]: 100
Foxtail, Giant plant response rating [8, 21]: 95
Foxtail, Giant plant response rating [8, 22]: 100
Lambsquarters plant response rating [9, 15]: 0
Plant response rating, Lambsquarters [9, 16]: 0
Plant response rating, Lambsquarters [9, 17]: 0
Plant response rating, Lambsquarters [9, 18]: 0
Plant response rating, Lambsquarters [9, 19]: 0
Plant response rating, Lambsquarters [9, 20]: 20
Lambsquarters plant response rating [9, 21]: 0
Lambsquarters plant response rating [9, 22]: 0
Kochia plant response rating [10, 15]: 0
Plant response rating, Kochia [10, 16]: 0
Plant response rating, Kochia [10, 17]: 0
Plant response rating, Kochia [10, 18]: 0
Plant response rating, Kochia [10, 19]: 98
Plant response rating, Kochia [10, 20]: 100
Kochia plant response rating [10, 21]: 0
Kochia plant response rating [10, 22]: 20
Velvetleaf plant response rating [11, 15]: 0
Plant response rating, Velvetleaf [11, 16]: 0
Plant response rating, Velvetleaf [11, 17]: 0
Plant response rating, Velvetleaf [11, 18]: 0
Plant response rating, Velvetleaf [11, 19]: 0
Plant response rating, Velvetleaf [11, 20]: 0
Velvetleaf plant response rating [11, 21]: 0
Velvetleaf plant response rating [11, 22]: 0
Goosegrass plant response rating [12, 15]: 60
Plant response rating, Goosegrass [12, 16]: 65
Plant response rating, Goosegrass [12, 17]: 75
Plant response rating, Goosegrass [12, 18]: 98
Plant response rating, Goosegrass [12, 19]: 98
Plant response rating, Goosegrass [12, 20]: 100
Goosegrass plant response rating [12, 21]: 75
Goosegrass plant response rating [12, 22]: 80
Plant response rating, Galium ([13]; 31 g ai/ha, scale 0 to 100 (0 no effect, 100 complete control)): 0
Plant response rating, Galium ([13]; 62 g ai/ha, 0 to 100 scale, 0 no effect, 100 complete control): 0
Galium plant response rating ([13]; 8 g ai/ha): 0
Galium plant response rating ([13]; 16 g ai/ha): 0
Plant response rating, Rice ([14]; Flood (flooded paddy test), 62 g ai/ha, scale 0 to 100, 0 no effect, 100 complete control): 0
Plant response rating, Rice ([14]; Flood (flooded paddy test), 125 g ai/ha, scale 0 to 100, 0 no effect, 100 complete control): 0
Plant response rating, Rice ([14]; Flood (flooded paddy test), 250 g ai/ha, scale 0 to 100, 0 no effect, 100 complete control): 10
Plant response rating, Rice ([14]; Flood, 31 g ai/ha, scale 0 to 100): 0
